Results published in PMC9939320 (Acta Pharmaceutica Sinica. B, 2022).

Test: cytotoxicity
Format: cell-based

| SMILES | CC50 |
| --- | --- |
| CC1=CC[C@@H]2[C@]34CC[C@](O)(OC3)C(C)(C)[C@@H]4CC[C@@]2(C)[C@@]12Oc1cc(-c3cccnc3)oc(=O)c1[C@@H]2O [Compound 8, decaturin B] | > 100 µM |
| NC(=O)c1ncn([C@@H]2O[C@H](CO)[C@@H](O)[C@H]2O)n1 [Ribavirin] | > 100 µM |
